Results as given in patent US7348426B1, “Substituted bicyclic heterocycles, process for their preparation and their use as antiobesity and hypocholesterolemic agents” (Dr. Reddy's Laboraties Limited, priority 1999, dated 2008).

Legend:
[1] = tested on: cholesterol fed Syrian Hamsters; details: hamster, in vivo, po, 10 mg/kg/day
[2] = tested on: hypercholesterolemic Sprague Dawley rats; details: rat, in vivo, po, 1 mg/kg
C57BL/KsJ-db/db mice = experiment: Blood sugar and triglyceride lowering in db/db mice (genetic model); format: in vivo
From the text: Mutation in colonies of laboratory animals and different sensitivities to dietary regimens have made the development of animal models with non-insulin dependent diabetes and hyperlipidemia associated with obesity and insulin resistance possible. Genetic models such as db/db and ob/ob (Diabetes, (1982) 31(1): 1-6) mice and zucker fa/fa rats have been developed by the various laboratories for understanding the pathophysiology of disease and testing the efficacy of new antidiabetic compounds (Diabetes, (1983) 32: 830-838; Annu. Rep. Sankyo Res. Lab. (1994). 46: 1-57). The homozygous animals, C57 BL/KsJ-db/db mice developed by Jackson Laboratory, U.S., are obese, hyperglycemic, hyperinsulinemic and insulin resistant (J. Clin. Invest., (1990) 85: 962-967), whereas heterozygous are lean and normoglycemic. In db/db model, mouse progressively develops insulinopenia with age, a feature commonly observed in late stages of human type II diabetes when blood sugar levels are insufficiently controlled. The state of pancreas and its course vary according to the models. Since this model resembles that of type II diabetes mellitus, the compounds of the present invention were tested for blood sugar and triglycerides lowering activities. Male C57BL/KsJ-db/db mice of 8 to 14 weeks age, having body weight range of 35 to 60 grams, bred at Dr. Reddy's Research Foundation (DRF) animal house, were used in the experiment. The mice were provided with standard feed (National Institute of Nutrition (NIN), Hyderabad, India) and acidified water, ad libitum. The animals having more than 350 mg/dl blood sugar were used for testing. The number of animals in each group was 4. […] The control group received vehicle (dose 10 ml/kg). On 6th day the blood samples were collected one hour after administration of test compounds/vehicle for assessing the biological activity. The random blood sugar and triglyceride levels were measured by collecting blood (100 μl) through orbital sinus, using heparinised capillary in tubes containing EDTA which was centrifuged to obtain plasma. The plasma glucose and triglyceride levels were measured spectrometrically, by glucose oxidase and glycerol-3-PO4 oxidase/peroxidase enzyme (Dr. Reddy's Lab. Diagnostic Division Kits, Hyderabad, India) methods respectively. The blood sugar and triglycerides lowering activities of the test compound was calculated according to the formula. Formulae for Calculation: 1. Percent reduction in Blood sugar/triglycerides/total cholesterol were calculated according to the formula: [formula] OC=Zero day control group value OT=Zero day treated group value TC=Test day control group value TT=Test day treated group value 2. LDL and VLDL cholesterol levels were calculated according to the formula: […]

[3] = tested on: Swiss albino mice and Guinea pigs; experiment: Plasma triglyceride and total cholesterol lowering activity in Swiss albino mice and Guinea pigs; format: in vivo; details: 3 mg/kg orally for 6 days; species of the table not stated (Swiss albino mice / Guinea pigs)
Description: C) Plasma Triglyceride and Total Cholesterol Lowering Activity in Swiss Albino Mice and Guinea Pigs Male Swiss albino mice (SAM) and male Guinea pigs were obtained from NIN and housed in DRF animal house. All these animals were maintained under 12 hour light and dark cycle at 25±1° C. Animals were given standard laboratory chow (NIN, Hyderabad. India) and water, ad libitum. […] C. Effects of fenofibrate, gemfibrozil and nicotinic acid on plasma lipoprotein levels in normal and hyperlipidemic mice. Atherosclerosis. 1988, 70: 107-114). […] Control mice were treated with vehicle (0.25% Carboxymethylcellulose; dose 10 ml/kg). […] Control animals were treated with vehicle (0.25% Carboxymethylcellulose; dose 5 ml/kg). The blood samples were collected in fed state 1 hour after drug administration on 0 and 6 day of treatment. The blood was collected from the retro-orbital sinus through heparinised capillary in EDTA containing tubes. After centrifugation, plasma sample was separated for triglyceride and total cholesterol (Wieland, O. Methods of Enzymatic analysis. Bergermeyer, H. O., Ed., 1963. 211-214; Trinder, P. Ann. Clin. Biochem. 1969, 6: 24-27). […] Percent reduction in Blood sugar/triglycerides/total cholesterol were calculated according to the formula: [formula] […] LDL and VLDL cholesterol levels were calculated according to the formula: […]

[4] = 10 mg/kg oral gavage daily for 6 days
[5] = 3 mg/kg oral gavage daily for 6 days

SMILES: CCOC(Cc1ccc(OCCN2CCSc3ccccc32)cc1)C(=O)[O-].[Na+] (racemic) [Example 30, (±) 3-[4-[2(2,3-Dihydro-1,4-benzothiazin-4-yl)ethoxy]phenyl]-2-ethoxypropanoic acid, sodium salt]
- Body weight Reduction (%) [1]: 18%

SMILES: CCOC(Cc1ccc2cc(OCCN3CCSc4ccccc43)ccc2c1)C(=O)[O-].[Na+] (racemic) [Example 44]
- HDL (%) ↑ increase [2]: 46%
- LDL (%) ↓ reduction [2]: 44%
- Total Cholesterol (%) ↓ reduction [2]: 42%
- Triglyceride (%) ↓ reduction [2]: 50%
- VLDL (%) ↓ reduction [2]: 53%
- Reduction in Blood Glucose Level (%) (C57BL/KsJ-db/db mice; [4]): 47%
- Triglyceride Lowering (%) (C57BL/KsJ-db/db mice; [4]): 74%

SMILES: CCCCOC(Cc1ccc(OCCN2CCOc3ccccc32)cc1)C(=O)[O-].[Na+] (racemic) [Example 50, (±) 3-[4-[2-(2,3-Dihydro-1,4-benzoxazin-4-yl)ethoxy]phenyl]-2-butoxypropanoic acid, sodium salt]
- Reduction in Blood Glucose Level (%) (C57BL/KsJ-db/db mice; [5]): 45%
- Triglyceride Lowering (%) (C57BL/KsJ-db/db mice; [5]): 23%

SMILES: CCOC(Cc1ccc(OCC2CN(Cc3ccccc3)c3ccccc3O2)cc1)C(=O)[O-].[Na+] (racemic) [Example 63, (±) 3-[4-(4-Benzyl-3,4-dihydro-1,4-benzoxazin-2-yl)methoxyphenyl]-2-ethoxy propanoic acid, sodium salt]
- Triglyceride Lowering (%) [3]: 57%
